In paper PMC7360862, “Sub-Acute Treatment of Curcumin Derivative J147 Ameliorates Depression-Like Behavior Through 5-HT1A-Mediated cAMP Signaling” (Frontiers in Neuroscience, 2020):

What was measured:
5-HT1B receptor [1] = molecular target: T1, 5-HT1B receptor (Mus musculus, UniProt P28334); assay: competitive radioligand binding, mouse frontal cortex membranes, reference antagonist measured in the same laboratory
T1 construct: gene Htr1b; native receptor in mouse frontal cortex membranes

5-HT1B receptor [2] = molecular target: T1, 5-HT1B receptor; assay: competitive radioligand binding, mouse frontal cortex membranes
5-HT1A receptor = molecular target: T2, 5-HT1A receptor (Mus musculus, UniProt Q64264); assay: competitive radioligand binding ([3H]-8-OH-DPAT displacement), mouse frontal cortex membranes
T2 construct: gene Htr1a; native receptor in mouse frontal cortex membranes
T2 sequence (Q64264 1-421): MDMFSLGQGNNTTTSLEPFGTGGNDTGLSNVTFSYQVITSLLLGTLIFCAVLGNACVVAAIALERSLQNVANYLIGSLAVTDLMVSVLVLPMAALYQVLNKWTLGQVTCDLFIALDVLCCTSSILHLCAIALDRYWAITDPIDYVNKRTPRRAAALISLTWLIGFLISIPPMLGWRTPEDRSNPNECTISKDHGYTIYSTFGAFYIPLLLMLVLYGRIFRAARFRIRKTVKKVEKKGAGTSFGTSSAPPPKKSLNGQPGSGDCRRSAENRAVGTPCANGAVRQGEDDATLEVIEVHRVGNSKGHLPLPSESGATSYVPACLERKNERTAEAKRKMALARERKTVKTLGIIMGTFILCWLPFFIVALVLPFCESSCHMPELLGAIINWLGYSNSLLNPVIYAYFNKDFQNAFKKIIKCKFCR

T1 sequence (P28334 whole entry): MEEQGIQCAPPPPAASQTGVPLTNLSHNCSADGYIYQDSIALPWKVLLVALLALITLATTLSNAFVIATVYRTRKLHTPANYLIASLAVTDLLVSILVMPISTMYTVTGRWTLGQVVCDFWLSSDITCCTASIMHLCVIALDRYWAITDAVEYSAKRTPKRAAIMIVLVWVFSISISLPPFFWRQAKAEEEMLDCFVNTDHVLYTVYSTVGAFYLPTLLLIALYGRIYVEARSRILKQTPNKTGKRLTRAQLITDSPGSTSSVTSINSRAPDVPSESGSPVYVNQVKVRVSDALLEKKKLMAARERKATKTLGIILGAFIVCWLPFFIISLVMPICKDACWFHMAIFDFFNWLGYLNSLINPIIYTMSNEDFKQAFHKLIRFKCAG

Ki (5-HT1B receptor [2]) [nM] | Ki (5-HT1A receptor) [nM] | Structure (SMILES) | Ki (5-HT1B receptor [1]) [nM]
 |  | COc1ccc(NC(=O)c2ccc(-c3ccc(-c4noc(C)n4)cc3C)cc2)cc1N1CCN(C)CC1 [GR-127935] | 1.29
612 | 0.42 | COc1cccc(/C=N/N(C(=O)C(F)(F)F)c2ccc(C)cc2C)c1 [J147] | 
